Our source for the IC50 values is patent US20260166039A1 (SCHRÖDINGER, INC., priority 2022, published 2026).

pIC50: −log10 of the molar value.

For the first experiment, the target named is T1, Wee1 kinase domain (Homo sapiens, UniProt P30291).
T1 construct: Wee1 kinase domain was purchased from Carna (catalog #05-177); purchased Carna 05-177
T1 sequence (P30291 299-569 limits assumed): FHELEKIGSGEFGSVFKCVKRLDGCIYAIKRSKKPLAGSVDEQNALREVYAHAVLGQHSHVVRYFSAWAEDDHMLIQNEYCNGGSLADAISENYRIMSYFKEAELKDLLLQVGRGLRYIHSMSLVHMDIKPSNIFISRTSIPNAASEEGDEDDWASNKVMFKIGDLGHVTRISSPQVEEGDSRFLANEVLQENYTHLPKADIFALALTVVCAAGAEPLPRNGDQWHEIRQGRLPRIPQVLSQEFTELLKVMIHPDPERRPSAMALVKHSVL
As to the kind of experiment: Wee1 Kinase Biochemical Assay (ADP-Glo). As to conditions: 1 nM Wee1 enzyme, 15 uM ATP, 4 hours at 25° C. The gist of the method:
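Carna Wee1 kinase domain at 1 nM, with 15 uM ATP and 2 ng/mL poly(Lys,Tyr 4:1) substrate in 40 mM Tris-HCl, 20 mM MgCl2, 0.1 mg/mL BSA, 2 mM DTT, run 4 h at 25° C. ADP formation read by ADP-Glo luminescence. Percent inhibition normalised to DMSO and saturating-inhibitor controls.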
(ADP-Glo first removes unused ATP, then detects ADP through luciferase.)
Molecule `COCCN1CCC(n2ccc(Nc3ncc4c(n3)N(c3cccc(N=S(C)(C)=O)n3)[C@@H]3CC(C)(C)OC[C@]43C)cc2=O)CC1` (single isomer, unassigned) [Example 825] gave a negative-log IC50 (pIC50) above 8.00. Same read-out and setting: with `CC1(C)C[C@H]2N(c3cccc(N=S(C)(C)=O)n3)c3nc(Nc4ccn(C5CC5)n4)ncc3[C@@]2(C)CO1` (single isomer, unassigned) [Example 831] the figure was above 8.00.

Staying with this experiment, now noted: Wee1 kinase domain, 15 uM ATP, ADP-Glo.
In the case of `CNCc1cccc(N2c3nc(Nc4ccc(N5C(=O)CC[C@@H]5C)cc4)ncc3[C@]3(C)COC(C)(C)C[C@H]23)n1` (single isomer, unassigned) [Example 27], the negative logarithm of the IC50 (pIC50) is at most 6.00. In turn, `CC1(C)C[C@H]2N(c3cccc(N=S(C)(C)=O)n3)c3nc(Nc4ccc5ncnn5c4)ncc3[C@@]2(C)CO1` (single isomer, unassigned) [Example 384] gave a pIC50 above 8.00. `CN1CC(c2ccc(Nc3ncc4c(n3)N(c3cccc(N=S(C)(C)=O)n3)[C@H]3CC(C)(C)OC[C@@]43C)cc2Cl)C1` (single isomer, unassigned) [Example 182]: the pIC50 was 6.00 to 7.00.

Turning to `C[C@H]1COC(=O)N1c1cccc(N2c3nc(Nc4ccc(C5CCN(C)CC5)nc4)ncc3[C@]3(C)COC(C)(C)C[C@H]23)n1` (single isomer, unassigned) [Example 296], the pIC50 is above 8.00.

`Cc1cc(Nc2ncc3c(n2)N(c2cccc(C(C)(C)O)n2)[C@H]2CC(C)(C)OC[C@@]32C)ccc1N1CCN(C)CC1` (single isomer, unassigned) [Example 10] had a pIC50 of 7.00 to 8.00. As for `CNCc1cccc(N2c3nc(Nc4ccc(N5CCOCC5)c(Cl)c4)ncc3[C@]3(C)COC(C)(C)C[C@H]23)n1` (single isomer, unassigned) [Example 13], the negative logarithm of the IC50 (pIC50) was 7.00 to 8.00.

On to `CNCc1cccc(N2c3nc(Nc4ccc(N5CCS(=N)(=O)CC5)cc4)ncc3[C@]3(C)COC(C)(C)C[C@H]23)n1` (single isomer, unassigned) [Example 50], for which the negative-log IC50 (pIC50) is 7.00 to 8.00.

In the case of `CNCc1cccc(N2c3nc(Nc4ccc([C@@]5(C)CCN(C)C5=O)cc4)ncc3[C@]3(C)COC(C)(C)C[C@H]23)n1` (single isomer, unassigned) [Example 79], the pIC50 is 6.00 to 7.00. On to `CN1CC(n2cc(Nc3ncc4c(n3)N(c3cccc(N=S(C)(C)=O)n3)[C@H]3CC(C)(C)OC[C@@]43C)cn2)C1` (single isomer, unassigned) [Example 208], for which the pIC50 was 7.00 to 8.00. The same measure, in the same setting: for `Cc1cc(Nc2ncc3c(n2)N(c2cccc(N4C(=O)OC[C@@H]4C)n2)[C@H]2CC(C)(C)OC[C@@]32C)ccc1N1C[C@@H]2C[C@H]1CN2C` (single isomer, unassigned) [Example 294] the value was 7.00 to 8.00; for `CN1CCC[C@@H]1c1ccc(Nc2ncc3c(n2)N(c2cccc(N=S(C)(C)=O)n2)[C@H]2CC(C)(C)OC[C@@]32C)cc1` (single isomer, unassigned) [Example 128], 6.00 to 7.00.

Turning to `Cc1cc(Nc2ncc3c(n2)N(c2cccc(C(C)(C)O)n2)[C@H]2CC(C)(C)OC[C@@]32C)ccc1C1CCN(C)CC1` (single isomer, unassigned) [Example 7], the pIC50 was 7.00 to 8.00.

For `Cc1cc(Nc2ncc3c(n2)N(c2cccc(N4C(=O)OC[C@@H]4C)n2)[C@H]2CC(C)(C)OC[C@@]32C)ccc1O[C@H]1CCNC1` (single isomer, unassigned) [Example 338], the pIC50 was 7.00 to 8.00.

Consider `CNCc1cccc(N2c3nc(Nc4ccc(N5CCOCC5)c(C)c4)ncc3[C@]3(C)COC(C)(C)C[C@H]23)n1` (single isomer, unassigned) [Example 25], for which the negative-log IC50 (pIC50) was 7.00 to 8.00.

Molecule `Cn1ccc2nc(Nc3ncc4c(n3)N(c3cccc(N=S(C)(C)=O)n3)[C@@H]3CC(C)(C)OC[C@]43C)cnc21` (single isomer, unassigned) [Example 383] gave a negative-log IC50 (pIC50) above 8.00.

With `CNCc1cccc(N2c3nc(Nc4ccc(N5CCOCC5)cc4)ncc3[C@]3(C)COC(C)(C)C[C@H]23)n1` (single isomer, unassigned) [Example 6], the pIC50 was 7.00 to 8.00. Same read-out and setting: with `CNCc1cccc(N2c3nc(NC45CC(C4)C5)ncc3[C@@]3(C)COC(C)(C)C[C@@H]23)n1` [Example 89, (4bR,8aR)-N-(bicyclo[1.1.1]pentan-1-yl)-4b,7,7-trimethyl-9-(6-((methylamino)methyl)pyridin-2-yl)-4b,5,7,8,8a,9-hexahydropyrano[3′,4′:4,5]pyrrolo[2,3-d]pyrimidin-2-amine] the figure was at most 6.00.

Still in this experiment, the particulars now being: class symbols; 1 nM Wee1 enzyme, 15 uM ATP, 4 hours at 25° C.
As for `CN[C@@H](C)c1cc(C)nc(N2c3nc(Nc4ccc(N5CCOCC5)cc4)ncc3[C@]3(C)COC(C)(C)C[C@H]23)c1` (single isomer, unassigned) [Example 559], the negative-log IC50 (pIC50) is at most 6.00. In the case of `CN1CCN(c2ccc(Nc3ncc4c(n3)N(c3cccc(C(F)F)n3)[C@@H]3CC(C)(C)OC[C@]43C)cc2)CC1` (single isomer, unassigned) [Example 807], the pIC50 is above 8.00. On the same count and under the same terms, for `CNCc1ccnc(N2c3nc(Nc4ccc(N5CCOCC5)cc4)ncc3[C@]3(C)COC(C)(C)C[C@H]23)c1` (single isomer, unassigned) [Example 548] the value was at most 6.00; for `CNCc1cccc(N2c3nc(Nc4ccc(C(C)(C)C(=O)O)cc4)ncc3[C@]3(C)COC(C)(C)C[C@H]23)n1` (single isomer, unassigned) [Example 457], at most 6.00.

Molecule `Cc1cc(Nc2ncc3c(n2)N(c2cccc(N4CCCC4=O)n2)[C@H]2CC(C)(C)OC[C@@]32C)ccc1N1C[C@@H]2C[C@H]1CN2C` [Example 653, 1-(6-((4bS,8aS)-4b,7,7-trimethyl-2-((3-methyl-4-((1S,4S)-5-methyl-2,5-diazabicyclo[2.2.1]heptan-2-yl)phenyl)amino)-4b,7,8,8a-tetrahydropyrano[3′,4′:4,5]pyrrolo[2,3-d]pyrimidin-9(5H)-yl)pyridin-2-yl)pyrrolidin-2-one] had a pIC50 of 7.00 to 8.00.

For `CNCc1cccc(N2c3nc(Nc4ccc(N5CCOC[C@@H]5C)cc4)ncc3[C@]3(C)COC(C)(C)C[C@H]23)n1` (single isomer, unassigned) [Example 475], the pIC50 was 6.00 to 7.00. `CN1C[C@H]2C[C@@H]1CN2c1ccc(Nc2ncc3c(n2)N(c2cccc(C(C)(C)O)n2)[C@H]2CC(C)(C)OC[C@@]32C)cc1Cl` (single isomer, unassigned) [Example 434] had a negative-log IC50 (pIC50) of 7.00 to 8.00. Still for that read-out and setting: with `CN1CC[C@H]2CN(c3ccc(Nc4ncc5c(n4)N(c4cccc(N6CCOC6=O)n4)[C@H]4CC(C)(C)OC[C@@]54C)cc3)C[C@H]21` [Example 685, 3-(6-((4bS,8aS)-4b,7,7-trimethyl-2-((4-((3aS,6aS)-1-methylhexahydropyrrolo[3,4-b]pyrrol-5(1H)-yl)phenyl)amino)-4b,7,8,8a-tetrahydropyrano[3′,4′:4,5]pyrrolo[2,3-d]pyrimidin-9(5H)-yl)pyridin-2-yl)oxazolidin-2-one] the figure was 7.00 to 8.00; with `CN1CCN(c2ccc(Nc3ncc4c(n3)N(c3cccc(N=S(C)(C)=O)n3)[C@@H]3CC(C)(C)OC[C@]43C)nc2)CC1` (single isomer, unassigned) [Example 510], above 8.00. On the same count and under the same terms, for `CN1CC[C@@H](Oc2ccc(Nc3ncc4c(n3)N(c3cccc(C(C)(C)O)n3)[C@@H]3CC(C)(C)OC[C@]43C)cc2)C1` (single isomer, unassigned) [Example 424] the value was 7.00 to 8.00. Same read-out and setting: for `CN1CC[C@@H]2CN(c3ccc(Nc4ncc5c(n4)N(c4cccc(N6CCOC6=O)n4)[C@H]4CC(C)(C)OC[C@@]54C)cc3)C[C@@H]21` [Example 706, 3-(6-((4bS,8aS)-4b,7,7-trimethyl-2-((4-((3aR,6aR)-1-methylhexahydropyrrolo[3,4-b]pyrrol-5(1H)-yl)phenyl)amino)-4b,7,8,8a-tetrahydropyrano[3′,4′:4,5]pyrrolo[2,3-d]pyrimidin-9(5H)-yl)pyridin-2-yl)oxazolidin-2-one] the value was 7.00 to 8.00; for `CN(C)Cc1cccc(N2c3nc(Nc4ccc(N5CCOCC5)cc4)ncc3[C@]3(C)COC(C)(C)C[C@H]23)n1` (single isomer, unassigned) [Example 524], 6.00 to 7.00; for `CN1CCN(c2ccc(Nc3ncc4c(n3)N(c3cccc(N5CCOC5=O)n3)[C@H]3CC(C)(C)OC[C@@]43C)cc2)CC1` (single isomer, unassigned) [Example 576], 6.00 to 7.00. In the case of `Cc1cc(Nc2ncc3c(n2)N(c2cccc(N4CCCC4=O)n2)[C@H]2CC(C)(C)OC[C@@]32C)ccc1N1C[C@H]2C[C@@H]1CN2C` [Example 659, 1-(6-((4bS,8aS)-4b,7,7-trimethyl-2-((3-methyl-4-((1R,4R)-5-methyl-2,5-diazabicyclo[2.2.1]heptan-2-yl)phenyl)amino)-4b,7,8,8a-tetrahydropyrano[3′,4′:4,5]pyrrolo[2,3-d]pyrimidin-9(5H)-yl)pyridin-2-yl)pyrrolidin-2-one], the negative logarithm of the IC50 (pIC50) was 7.00 to 8.00. The same measure, in the same setting: with `Cc1cc(Nc2ncc3c(n2)N(c2cccc(N4CCOC4=O)n2)[C@H]2CC(C)(C)OC[C@@]32C)ccc1N1C[C@@H]2C[C@H]1CN2C` [Example 655, 3-(6-((4bS,8aS)-4b,7,7-trimethyl-2-((3-methyl-4-((1S,4S)-5-methyl-2,5-diazabicyclo[2.2.1]heptan-2-yl)phenyl)amino)-4b,7,8,8a-tetrahydropyrano[3′,4′:4,5]pyrrolo[2,3-d]pyrimidin-9(5H)-yl)pyridin-2-yl)oxazolidin-2-one] the figure was 7.00 to 8.00; with `CN1CC[C@@H]2CN(c3ccc(Nc4ncc5c(n4)N(c4cccc(N6CCCC6=O)n4)[C@H]4CC(C)(C)OC[C@@]54C)cc3)C[C@@H]21` [Example 687, 1-(6-((4bS,8aS)-4b,7,7-trimethyl-2-((4-((3aR,6aR)-1-methylhexahydropyrrolo[3,4-b]pyrrol-5(1H)-yl)phenyl)amino)-4b,7,8,8a-tetrahydropyrano[3′,4′:4,5]pyrrolo[2,3-d]pyrimidin-9(5H)-yl)pyridin-2-yl)pyrrolidin-2-one], 6.00 to 7.00.

The pIC50 is the negative decadic logarithm of the IC50, by convention in mol/L. Read a low pIC50 as a large IC50.
